{
  "source": "patent US20110081428A1",
  "about": "“Use of thioflavin-like compounds to increase life span and/or health span” (priority 2009, published 2011)",
  "format_in_all_cases": "in vivo, Caenorhabditis elegans",
  "key": {"HSP-16.2": {"system": "HSP-16.2", "assay": "Western blot HSP-16.2", "settings": "50 μM ThT, 100 μM curcumin, 4 and 7 days of treatment", "protocol": "Peptide corresponding to amino acids 110-145 ([…]; SEQ ID NO:1) of HSP-16.2 was used to commercially synthesize antiserum (Invitrogen). Briefly, KLH-peptide was emulsified by mixing with an equal volume of Freund's adjuvant and injected into three subcutaneous dorsal sites for a total of 0.1 mg of peptide for immunization. The animals (rabbits) were bled, the blood allowed to clot and the serum collected by centrifugation. Monoclonal HSP-70 and Polyclonal HSF-1 primary antibodies were from stressgen (N27F3-4 and SPA-901, respectively).\nWorms were transferred to siliconized eppendorf tubes, washed once in S-basal and frozen in liquid N2. Standard SDS-PAGE was performed using (4-12%) NOVEX gels and IVIES running buffer. Following transfer PVDF (BioRad) membranes were incubated with antisera (1:10000) or primary antibodies (1:1000) diluted in blocking buffer and then with secondary, goat anti-rabbit IgG antibody/horseradish peroxidase conjugate (Pierce), diluted 1:25000. Detection was undertaken with chemiluminescent reagents (SuperSignal, Pierce) and standard autoradiography."}, "[1]": {"system": "CL4176 (Aβ3-42 expressed in muscle)", "assay": "Worm paralysis assay, Aβ model", "settings": "CL4176, 25° C.; 50 μM ThT, 100 μM curcumin", "quoted_text": "(§1) Scoring for paralysis was initiated 2 and 8 days after temperature upshift for CL4176 and AM140, respectively. […] For sensitivity to EtOH or levamisole resistance, CW152 gas-1 (fc21) X and ZZ26 unc-63(x26)I worms were picked into 0.4 M EtOH or 50 μM levamisole, respectively, equilibrated for 5 min, and scored for paralysis as described above. Treated and untreated worms were compared with an unpaired t-test (implemented in Prism 4, Graphpad™ Software, Inc., San Diego, Calif., USA)."}, "[2]": {"system": "DAF-16 fusion protein [TJ356 daf-16::daf-16-gfp]", "assay": "DAF-16::GFP localization", "settings": "ThT or curcumin treatment, no heat shock", "protocol": "For fluorescent microscopy, TJ356 zIs356 IV [daf-16::daf-16-gfp+rol-6] or CF2189 Is001(skn-1::gfp+rol-6) were paralyzed with 1 mM levamisole mounted on 1% agarose pads and imaged using Olympus BX51 (60× objective) and HCImage software (Hamamatsu). For immunofluorescence, N2, […], CB1157 unc-54(e1157) or CL4176 dvIs27 [myo-3::Aβ(3 to 42)-let 3′UTR(pAF29); pRF4 (rol-6(su1006))] worms were treated for 24-36 h with or without 50 μM ThT at 25° C. After this period the worms were collected, rinsed, and fixed in 4% paraformaldehyde overnight. […] Paramyosin and perlecans were detected with primary monoclonal antibodies 5-23 and MH3 (developed by Henry Epstein and Robert H. Waterston and obtained from the Developmental Studies Hybridoma Bank developed under the auspices of the NICHD and maintained by The University of Iowa, Department of Biology, Iowa City, Iowa 52242) and AlexaFluor 633 goat anti-mouse (Molecular Probes) as secondary antibody. Soluble oligomers and Aβ peptide were detected with anti polyclonal All (Invitrogen) and 6E10 monoclonal (Covance) primary antibodies, respectively, with AlexaFluor 568 goat anti-rabbit and AlexaFluor 488 goat anti-mouse (Molecular Probes) as secondary antibodies. Images were processed and quantified by using Image Analyst MK II (Novato, Calif.)."}, "[3]": {"system": "HE250 [unc-52(e669su250)II]", "assay": "Worm paralysis assay, unc-52 ts mutant", "settings": "HE250, 25° C., 36 h; 50 μM ThT, 100 μM curcumin, 100 μM rifampicin", "quoted_text": "as §1"}, "[4]": {"system": "AM140 (rmIs132[P(unc-54) Q35::YFP])", "assay": "Worm paralysis assay, polyQ model", "settings": "AM140, 25° C., 8 days; 50 μM ThT, 100 μM curcumin", "quoted_text": "as §1"}},
  "data": [
    {"smiles": "COc1cc(/C=C/C(=O)CC(=O)/C=C/c2ccc(O)c(OC)c2)ccc1O", "note": "[curcumin, reference compound]", "values": [
      {"measurement": "HSP-16.2 protein levels", "setting": "HSP-16.2", "value": "increase the HSP-16.2 levels"},
      {"measurement": "proportion of paralyzed worms", "setting": "[1]", "value": "significantly decrease the proportion of paralyzed worms"},
      {"measurement": "DAF-16::GFP localization", "setting": "[2]", "value": "does not produce DAF-16::GFP relocalization"},
      {"measurement": "paralysis phenotype of unc-52 mutant", "setting": "[3]", "value": "Protection"},
      {"measurement": "proportion of paralyzed worms", "setting": "[4]", "value": "significantly decrease the proportion of paralyzed worms"}
    ]}
  ]
}
